Measured values as given in patent US8207142B2, “Inhibitor of DNA methylation” (priority 2001, dated 2012).

Assays:
p16 exon 2 = test: Ms-SNuPE quantitation of DNA methylation in T24 cells, p16 exon 2; format: cell-based, human; conditions: for p16 Exon 2 Methylation (%): control 96
Experimental: The average methylation at defined CpG sites was quantitated using a Ms-SNuPE assay, as described by Gonzalgo and Jones (Nucleic Acids Res. 25:2529-2531, 1997) and U.S. Pat. No. 6,251,594. Briefly, genomic DNA (˜4 μg) was digested overnight with 4 units of EcoRI (Boehringer Mannheim) (p16 promoter/exon 1 and p16 exon 2; FIG. 9A) or with 4 units of RsaI (Boehringer Mannheim) (P3; FIG. 9B) to cut outside the region of interest.
After standard treatment with sodium bisulfite, a PCR product of the region was generated as template for top-strand methylation analysis. The sequences of the primers used for bisulfite-treated DNA amplification were as follows: […]
p16 exon 2: 94° C. for 3 minutes, 94° C. for 1 minute, 62° C. for 45 seconds, and 72° C. for 45 seconds for 40 cycles, with a final extension step at 72° C. for 10 minutes.
Duplicates of 4 μl of template were then added to 6 μl of mixture consisting of 1× PCR buffer, 1 μM final concentration primers, 1 μCi of [^32P]dCTP or dTTP, and 1 unit 1:1 Taq/TaqStart antibody (Clontech, Palo Alto, Calif.). Single nucleotide extension involved incubation at 95° C. for 1 minute, then 50° C. for 2 minutes, and finally 72° C. for 1 minute (p16 promoter/exon1 and P16 exon 2) and 95° C. for 1 minute, then 46° C. for 30 seconds, and finally 72° C. for 20 seconds (P3). The sequences for SNuPE primers were as follows: […]
After briefly spinning down the tubes, 4 μl of stop solution were added to the 10-μl reaction volume, and the samples were boiled for 5 minutes at 95° C. before loading 1.5 μl onto a 15% denaturing polyacrylamide gel (7 M urea). The gel was run at 90 W for 1.5 hours and then dried at 80° C. for 40 minutes. The gel was exposed to a phosphorimaging cassette for quantitation of the ratio of [^32P]dCTP versus [^32P]dTTP incorporation, and the quantitation of the percent methylation was averaged from three separate CpG sites. The gel was then exposed to BioMax MR film (Kodak) to record experimental results.

[1] = system: DNA methylation of the am^RIP and ψ63 sequences; test: Southern blot analysis of DNA methylation in N. crassa (Dpn II vs Sau3AI digests); format: cell-based, Neurospora crassa; conditions: 12 and 24 μM 5-AC; 0.33 and 3.3 μM TSA; 20, 39, 78, 160 and 310 μM Zebularine
Experimental: DNA was digested with Dpn II (D) or Sau3AI (S), fractionated by gel electrophoresis, transferred to a membrane and probed for am (FIG. 4A) or ψ63 (FIG. 4B) sequences. Dpn II and Sau3AI both recognize the sequence GATC, but Sau3AI fails to cleave if the C residue is methylated. Thus, differences between S and D lanes are indicative of DNA methylation.
The ramp symbols at the top of the figure represent increasing concentrations of drug. Drug concentrations were 12 and 24 μM 5-AC; 0.33 and 3.3 μM TSA; and 20, 39, 78, 160 and 310 μM Zebularine. The positions of selected size standards (kb) are indicated.
Southern hybridizations were performed on DNA samples (−1 μg) isolated from liquid cultures inoculated with 7×10^4 conidia/ml. DNA was digested with Dpn II (D) or Sau3AI (S), fractionated by gel electrophoresis, transferred to a nylon membrane and probed for am^RIP (FIG. 4A) or ψ63 (FIG. 4B) sequences. The restriction endonucleases Dpn II and-Sau3AI both recognize the sequence GATC, but Sau3AI fails to cleave if the C residue is methylated. Drug concentrations were […] 5-AC, 0.33 and 3.3 μM TSA, and […] Zebularine.
The positions of selected size standards (kb) and the origin (ori) are indicated. […] Differences between S and D lanes are indicative of DNA methylation.

T24 cells = test: Colony-formation assay (decrease in plating efficiency) in T24 cells; format: cell-based, human
Experimental: The percentage cell survival was assessed by dividing the mean colony number on the treated plates divided by the mean colony number on the untreated plates ×100.

10T1/2 cells = test: Induction of a myogenic phenotype (myotube formation) in 10T1/2 cells; format: cell-based, mouse; parameters: key to Muscle Formation: + representing minimal muscle formation; scored for muscle cells 9-10 days later as + to +++; +++ representing maximal muscle formation; conditions: for Muscle Formation: 24 hours treatment, scored 9-10 days later; for muscle formation (micrographs, in words): 10T1/2 cells, approximately 9-10 days after drug treatment
Experimental: Cells were plated (3×10^5 cells/100-mm dish) and treated 24 hours later with the indicated concentrations of compounds. The medium was either changed 24 hours or 48 hours after drug treatment. Myotube formation was assayed in 10T1/2 cells as previously described (Constantinides et al., Nature 267:364-366, 1977). […] The ability of Zebularine to cause 10T1/2 cells to undergo the myogenic switch was therefore tested (FIG. 7).

[2] = system: human p16 cDNA in EJ6 tumor cells; test: RT-PCR of p16 gene expression in EJ6 tumor cells growing in mice; format: in vivo; conditions: EJ6 tumor cells in BALB/c nu/nu mice after treatment
Experimental: Total RNA was isolated from the tumors to analyze gene expression using conventional methods. DNA also was isolated, to measure the methylation status of p16 promoter by Ms-SnuPE as described below.
GAPDH mRNA levels were measured to control for the quantity and integrity of the input RNA. The control group represents tumors obtained from mice mock-treated either with 0.45% NaCl via intraperitoneal injection or oral gavage feeding. Results from one of six similar independent tumors are shown for each group in FIG. 15.

DNMT1 = molecular target: T1, DNMT1 (Homo sapiens, UniProt P26358); test: Western blot of DNMT1 level in treated T24 cells; format: cell-based; conditions: 500 μM for 48 h
T1 construct: protein extracts were isolated from both treated and untreated T24; endogenous in cells; host or cells: T24 human bladder carcinoma cells (ATCC)
T1 sequence (P26358 whole entry): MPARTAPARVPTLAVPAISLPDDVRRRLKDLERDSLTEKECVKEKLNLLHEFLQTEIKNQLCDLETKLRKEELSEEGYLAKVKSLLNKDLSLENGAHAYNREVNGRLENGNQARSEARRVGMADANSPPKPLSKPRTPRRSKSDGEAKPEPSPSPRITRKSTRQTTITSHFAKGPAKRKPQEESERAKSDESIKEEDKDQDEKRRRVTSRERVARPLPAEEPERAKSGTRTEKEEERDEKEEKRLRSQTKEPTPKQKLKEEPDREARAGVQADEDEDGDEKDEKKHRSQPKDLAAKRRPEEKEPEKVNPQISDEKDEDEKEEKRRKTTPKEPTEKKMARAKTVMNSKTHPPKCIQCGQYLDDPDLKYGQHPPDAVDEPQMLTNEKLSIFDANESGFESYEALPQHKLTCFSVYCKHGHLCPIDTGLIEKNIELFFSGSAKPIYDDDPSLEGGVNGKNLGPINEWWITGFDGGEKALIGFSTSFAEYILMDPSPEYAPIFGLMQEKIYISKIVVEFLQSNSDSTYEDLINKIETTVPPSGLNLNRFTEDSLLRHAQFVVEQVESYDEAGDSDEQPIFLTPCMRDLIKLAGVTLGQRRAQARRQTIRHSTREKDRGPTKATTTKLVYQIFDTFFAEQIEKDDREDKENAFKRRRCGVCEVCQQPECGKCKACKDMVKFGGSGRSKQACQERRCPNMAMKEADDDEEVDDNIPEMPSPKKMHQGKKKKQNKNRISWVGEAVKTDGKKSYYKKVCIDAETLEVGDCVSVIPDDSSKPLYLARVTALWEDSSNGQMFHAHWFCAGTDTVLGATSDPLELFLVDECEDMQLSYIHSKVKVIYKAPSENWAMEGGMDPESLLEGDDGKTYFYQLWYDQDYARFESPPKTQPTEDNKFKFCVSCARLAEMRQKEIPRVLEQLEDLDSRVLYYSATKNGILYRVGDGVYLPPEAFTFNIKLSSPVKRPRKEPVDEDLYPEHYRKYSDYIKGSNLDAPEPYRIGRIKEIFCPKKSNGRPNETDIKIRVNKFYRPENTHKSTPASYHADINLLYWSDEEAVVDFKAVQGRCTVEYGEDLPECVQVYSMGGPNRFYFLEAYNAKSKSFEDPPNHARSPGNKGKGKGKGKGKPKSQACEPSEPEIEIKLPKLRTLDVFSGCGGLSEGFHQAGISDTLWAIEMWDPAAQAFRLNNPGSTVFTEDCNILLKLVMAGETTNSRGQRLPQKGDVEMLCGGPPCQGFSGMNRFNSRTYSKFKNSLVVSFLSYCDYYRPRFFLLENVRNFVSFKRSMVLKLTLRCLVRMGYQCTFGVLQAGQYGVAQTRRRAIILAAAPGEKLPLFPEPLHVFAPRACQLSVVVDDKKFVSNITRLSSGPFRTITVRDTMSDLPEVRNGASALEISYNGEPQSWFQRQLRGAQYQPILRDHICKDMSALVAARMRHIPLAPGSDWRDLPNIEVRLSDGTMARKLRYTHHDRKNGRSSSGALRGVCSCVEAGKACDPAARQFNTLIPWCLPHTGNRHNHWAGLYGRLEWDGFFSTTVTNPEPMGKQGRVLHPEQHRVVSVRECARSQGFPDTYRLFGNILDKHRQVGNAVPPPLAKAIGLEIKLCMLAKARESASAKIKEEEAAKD
Experimental: The mRNA for DNMT3b3 is the only 3b transcript expressed in T24 cells, and DNMT3a levels could not be assessed because no suitable antibodies against DNMT3a are available. Thus, with reference to FIG. 12, protein extracts were isolated from both treated and untreated T24 (population 3 million cells, treated with 500 μM Zebularine for 48 h), and […] with specific antibodies for DNMT1 and DNMT3b3 as shown in FIG. 12. β-actin was included as a loading control, and the molecular weights of each protein are indicated.

## Nc1ncn([C@@H]2O[C@H](CO)[C@@H](O)[C@H]2O)c(=O)n1 [5-Aza-CR, 5-azacytidine, reference compound]
p16 exon 2; 3 μM, 24 hrs
  Relative p16 Exon 2 De-methylation (%): 8 +/− 2%
  p16 Exon 2 Methylation (%): 88 +/− 2%
p16 exon 2; 10 μM, 24 hrs
  Relative p16 Exon 2 De-methylation (%): 15 +/− 1%
  p16 Exon 2 Methylation (%): 82 +/− 1%
p16 exon 2; 30 μM, 24 hrs
  Relative p16 Exon 2 De-methylation (%): 25%
  p16 Exon 2 Methylation (%): 72 +/− 2%
p16 exon 2; 100 μM, 24 hrs
  Relative p16 Exon 2 De-methylation (%): 29%
  p16 Exon 2 Methylation (%): 68 +/− 3%
[1]
  effect on DNA methylation (Southern blot): inhibits DNA methylation globally
T24 cells; 3 μM, 24 hrs
  Toxicity (%) (decrease in plating efficiency): 2%
T24 cells; 10 μM, 24 hrs
  Toxicity (%) (decrease in plating efficiency): 12%
T24 cells; 30 μM, 24 hrs
  Toxicity (%) (decrease in plating efficiency): 30%
T24 cells; 100 μM, 24 hrs
  Toxicity (%) (decrease in plating efficiency): 54%
10T1/2 cells; 1 μM
  Muscle Formation: ++
10T1/2 cells; 3 μM
  Muscle Formation: +++
10T1/2 cells
  muscle formation (micrographs, in words): formed multinucleated myotubes

## O=c1ncccn1[C@@H]1O[C@H](CO)[C@@H](O)[C@H]1O [Zebularine, 1-β-ribofuranosyl-1,2-dihydropyrimidin-2-one]
p16 exon 2; 300 μM, 24 hrs
  Relative p16 Exon 2 De-methylation (%): 7 +/− 1%
  p16 Exon 2 Methylation (%): 89 +/− 1%
p16 exon 2; 300 μM, 48 hrs
  Relative p16 Exon 2 De-methylation (%): 16 +/− 2%
  p16 Exon 2 Methylation (%): 81 +/− 2%
p16 exon 2; 500 μM, 24 hrs
  Relative p16 Exon 2 De-methylation (%): 9 +/− 1%
  p16 Exon 2 Methylation (%): 87 +/− 1%
p16 exon 2; 500 μM, 48 hrs
  Relative p16 Exon 2 De-methylation (%): 18 +/− 2%
  p16 Exon 2 Methylation (%): 79 +/− 2%
p16 exon 2; 1000 μM, 24 hrs
  Relative p16 Exon 2 De-methylation (%): 20 +/− 2%
  p16 Exon 2 Methylation (%): 77 +/− 2%
p16 exon 2; 1000 μM, 48 hrs
  Relative p16 Exon 2 De-methylation (%): 24 +/− 1%
  p16 Exon 2 Methylation (%): 73 +/− 1%
[1]
  effect on DNA methylation (Southern blot): inhibits DNA methylation globally
[2]
  p16 gene expression in vivo (RT-PCR): Reactivation of p16 gene expression
T24 cells; 300 μM, 24 hrs
  Toxicity (%) (decrease in plating efficiency): 1%
T24 cells; 300 μM, 48 hrs
  Toxicity (%) (decrease in plating efficiency): 2%
T24 cells; 500 μM, 24 hrs
  Toxicity (%) (decrease in plating efficiency): 7%
T24 cells; 500 μM, 48 hrs
  Toxicity (%) (decrease in plating efficiency): 8%
T24 cells; 1000 μM (1 mM), 48 hrs
  Toxicity (%) (decrease in plating efficiency): 23%
T24 cells; 1000 μM, 24 hrs
  Toxicity (%) (decrease in plating efficiency): 18%
DNMT1
  level of DNMT1: significant reduction
10T1/2 cells; 10 μM
  Muscle Formation: +
10T1/2 cells; 30 μM
  Muscle Formation: ++
10T1/2 cells
  muscle formation (micrographs, in words): induced muscle formation in 10T1/2 cells
